Experimental data: US12173088B2, “Anti-microbial peptides” (priority 2018, dated 2024)
Converted amounts (≈) assume the structure as drawn. Like-named read-outs stand apart in the source and are kept apart here. Peptide text beside a SMILES is read from it.

Tests used:
E. coli ATCC 25922 = assay type: cell-based, Escherichia coli; details: ATCC 25922
How it was run: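 Broth microdilution: log-phase E. coli diluted to OD600 0.001 and exposed to two-fold serial peptide dilutions overnight at 37 °C. Growth read at 630 nm.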

E. coli ampC E416-7 = assay type: cell-based, Escherichia coli; details: Table 7
Excerpt: The bacterial strains used include the Gram-positive strains Staphylococcus aureus USA300 LAC, S. epidermidis 1457, and Bacillus subtilis 168, as well as the Gram-negative isolates Escherichia coli K12 and Acinetobacter baumannii B2367-12. Additional, drug resistance strains include Gram-positive Enterococcus faecium V286-17 (VRE) and S. aureus M838-17 (MRSA) and Gram-negative E. coli E423-17, E. coli E416-17 (ampC), and P. aeruginosa E411-17. Bacteria were cultivated in tryptic soy broth (TSB) (BD Bioscience, MD).
The antibacterial activity of peptides was evaluated using a standard broth microdilution protocol with minor modifications as described (Mishra, et al. (2012) J. Am. Chem. Soc., 134:12426-12429). In brief, logarithmic phase bacterial cultures (i.e., optical density at 600 nm≈0.5) were diluted to OD600 0.001 and partitioned into a 96-well polystyrene microplate at 90 μL per well. After treatment with 10 μL of peptide solutions two fold diluted to various concentrations, microplates were incubated at 37° C. overnight and read on a ChroMate® 4300 Microplate Reader at 630 nm (GMI, Ramsey, MN). […] To study the influence of medium conditions on the antimicrobial activity of peptides against S. aureus USA300, up to 200 mM sodium chloride (NaCl), 2 mM of calcium chloride, 5-10% of human serum, mouse plasma, fluid, or supernatants of tissue homogenates were included into the assays.

[1] = system: Klebsiella pneumoniae clinical strains; assay: microbe, parasite or virus in culture; details: clinical strains
[2] = system: human red blood cells (hRBCs); assay: Hemolytic assay; assay type: cell-based
How it was run: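 Washed hRBCs (2% v/v) exposed to peptide for 1 h at 37 °C, then centrifuged and hemoglobin in supernatant read at 545 nm. Lysis normalized to Triton X-100 (2% or 1%; 100%) and PBS (0%); HL50 is the peptide concentration giving 50% lysis, and CSI is HL50/MIC.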

Toxicity to cells [3] = assay type: cell-based; details: splenocytes (mouse spleen), Spleenocytes, read-out: LC50 (the source's name)
Liver microsomal assay = assay type: in vitro ADME; details: in one hour
[4] = Stability in mouse plasma and peritoneal fluid; assay type: in vitro ADME; details: murine peritoneal fluids or plasma for 3 hours
Procedure: Stability of horine and verine was evaluated in the presence of mouse plasma and peritoneal fluid using SDS-PAGE electrophoresis. […] […] The gels were stained using the Coomassie Brilliant Blue G-250 dye.

K. pneumoniae ATCC 13883 = assay type: cell-based, Klebsiella pneumoniae; details: ATCC 13883
How it was run: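 Broth microdilution in tryptic soy broth: log-phase cultures (OD600 ≈0.5) diluted to OD600 0.001, given two-fold peptide dilutions, incubated overnight at 37° C. Growth read at 630 nm.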

Toxicity to cells [5] = assay type: cell-based; details: human, MRC9 human lung fibroblasts; read-out: LC50 (the source's name)
[6] = system: clinical strains of methicillin-resistant and susceptible S. aureus; assay: microbe, parasite or virus in culture; details: Staphylococcus aureus

## CC(C)C[C@H](NC(=O)[C@H](CC(C)C)NC(=O)[C@H](CCCCN)NC(=O)[C@H](CC(C)C)NC(=O)CNC(=O)[C@H](CC(C)C)NC(=O)[C@H](CO)NC(=O)[C@H](CC(C)C)NC(=O)[C@H](CC(C)C)NC(=O)[C@H](CC(C)C)NC(=O)[C@H](CCCCN)NC(=O)[C@H](CC(C)C)NC(=O)CN)C(N)=O [DFT561, GLKLLLSLGLKLL] (H-GLKLLLSLGLKLL-NH2; N-terminus and C-terminus assumed)
E. coli ATCC 25922
  MIC EC (E. coli ATCC 25922): >25 µM
E. coli ampC E416-7
  MIC E. coli ampC E416-7: >50 µM

## CC(C)C[C@H](NC(=O)[C@H](Cc1c[nH]c2ccccc12)NC(=O)[C@H](Cc1c[nH]c2ccccc12)NC(=O)[C@@H](N)Cc1c[nH]c2ccccc12)C(=O)N[C@@H](CCCNC(=N)N)C(=O)N[C@@H](CCCNC(=N)N)C(=O)N[C@@H](CCCNC(=N)N)C(=O)N[C@@H](Cc1c[nH]c2ccccc12)C(N)=O [Horine, WWWLRRRW] (H-WWWLRRRW-NH2; N-terminus and C-terminus assumed)
[1]
  MIC: >64 µM
[2]
  HL50: 150 µM
Toxicity to cells [3]
  CC50: > 50 µM
Liver microsomal assay
  Degradation in liver microsomal assay: 5000
[4]
  Stability after incubation: stable and active
K. pneumoniae ATCC 13883
  MIC K. pneumonia ATCC 13883: >25 µM
Toxicity to cells [5]
  CC50: > 35 µM

## CN[C@H](CC(C)C)C(=O)N[C@H]1C(=O)N[C@@H](CC(N)=O)C(=O)N[C@H]2C(=O)N[C@H]3C(=O)N[C@H](C(=O)N[C@H](C(=O)O)c4cc(O)cc(O)c4-c4cc3ccc4O)[C@H](O)c3ccc(c(Cl)c3)Oc3cc2cc(c3O[C@@H]2O[C@H](CO)[C@@H](O)[C@H](O)[C@H]2O[C@H]2C[C@](C)(N)[C@H](O)[C@H](C)O2)Oc2ccc(cc2Cl)[C@H]1O [Vancomycin]
[6]; MSSA, strain B243-16 MSSA
  MIC: 0.5 µM (≈ 0.725 µg/mL)
[6]; MSSA, strain B254-16 MSSA
  MIC: 0.5 µM (≈ 0.725 µg/mL)
[6]; MSSA, strain B255-16 MSSA
  MIC: 1 µM (≈ 1.45 µg/mL)
[6]; MSSA, strain B262-16 MSSA
  MIC: 0.5 µM (≈ 0.725 µg/mL)
[6]; MSSA, strain B269-16 MSSA
  MIC: 1 µM (≈ 1.45 µg/mL)
[6]; NEWMAN, strain Newman
  MIC: 1 µM (≈ 1.45 µg/mL)
[6]; USA200, strain USA200
  MIC: 0.5 µM (≈ 0.725 µg/mL)
[6]; USA300, strain USA300
  MIC: 0.5 µM (≈ 0.725 µg/mL)
[6]; USA400, strain USA400
  MIC: 1 µM (≈ 1.45 µg/mL)
[6]; strain M106-16
  MIC: 1 µM (≈ 1.45 µg/mL)
[6]; strain M108-16
  MIC: 1 µM (≈ 1.45 µg/mL)
[6]; strain M109-16
  MIC: 0.5 µM (≈ 0.725 µg/mL)
[6]; strain M111-16
  MIC: 0.5 µM (≈ 0.725 µg/mL)
[6]; strain M112-16
  MIC: 0.5 µM (≈ 0.725 µg/mL)
[6]; strain M113-16
  MIC: 1 µM (≈ 1.45 µg/mL)
[6]; strain M114-16
  MIC: 1 µM (≈ 1.45 µg/mL)
[6]; strain M116-16
  MIC: 0.5 µM (≈ 0.725 µg/mL)
[6]; strain M117-16
  MIC: 0.5 µM (≈ 0.725 µg/mL)
[6]; strain M118-16
  MIC: 1 µM (≈ 1.45 µg/mL)
[6]; strain M119-16
  MIC: 0.5 µM (≈ 0.725 µg/mL)
[6]; strain M120-16
  MIC: 0.5 µM (≈ 0.725 µg/mL)
[6]; strain M121-16
  MIC: 1 µM (≈ 1.45 µg/mL)
[6]; strain M122-16
  MIC: 1 µM (≈ 1.45 µg/mL)
[6]; strain M123-16
  MIC: 0.5 µM (≈ 0.725 µg/mL)
[6]; strain M126-16
  MIC: 0.5 µM (≈ 0.725 µg/mL)
[6]; strain M127-16
  MIC: 0.5 µM (≈ 0.725 µg/mL)
[6]; strain M128-16
  MIC: 1 µM (≈ 1.45 µg/mL)
[6]; strain M129-16
  MIC: 0.5 µM (≈ 0.725 µg/mL)
[6]; strain M130-16
  MIC: 0.5 µM (≈ 0.725 µg/mL)
[6]; strain UAMS-1
  MIC: 2 µM (≈ 2.9 µg/mL)
[6]; strain mu50
  MIC: 2 µM (≈ 2.9 µg/mL)

## CC(C)[C@H](NC(=O)[C@H](Cc1c[nH]c2ccccc12)NC(=O)[C@H](Cc1c[nH]c2ccccc12)NC(=O)[C@H](Cc1c[nH]c2ccccc12)NC(=O)[C@H](Cc1c[nH]c2ccccc12)NC(=O)[C@H](CCCNC(=N)N)NC(=O)[C@H](CCCNC(=N)N)NC(=O)[C@@H](N)CCCNC(=N)N)C(N)=O [Verine, RRRWWWWV] (H-RRRWWWWV-NH2; N-terminus and C-terminus assumed)
[2]; Table 12
  HL50: 130^2 μM
Toxicity to cells [3]
  CC50: > 12.5 µM
Liver microsomal assay
  Degradation in liver microsomal assay: 5000
[4]
  Stability after incubation: stable and active
Toxicity to cells [5]
  CC50: > 25 µM
